By solubility (kinetic) is commonly meant the concentration staying in solution when a stock, usually in DMSO, is diluted into the medium.

≈ marks a conversion by molar mass, not a printed value.

The conditions of this data set: buffer; pH 7.4; 200.0 µM.
In the case of `Cc1sc(NC(=O)/C=C/c2ccco2)c(C(=O)O)c1C`, the kinetic solubility stood at 40.9 µg/mL (≈ 140 µM).
`Cc1cccc(C)c1N1CCN(c2c(C)cccc2C)CC1` gave a kinetic solubility of less than 0.3 µg/mL.
As for `O=[N+]([O-])c1sccc1CS(=O)(=O)c1ccccc1`, the figure is 20.6 µg/mL (≈ 72.7 µM); as for `O=c1cc(C(F)(F)F)nc(SCc2cccc3ccccc23)[nH]1`, 7.5 µg/mL (≈ 22.3 µM).
Take `CCN1CCC(N2CCN(c3ccc(Cl)cc3)CC2)CC1`: the solubility (kinetic) is 15.7 µg/mL (≈ 51 µM).
`O=C(NC12CC3CC(CC(C3)C1)C2)c1cccnc1Cl` had a solubility (kinetic) of 22.3 µg/mL (≈ 76.7 µM).
On to `C[C@H](NC(=O)c1ccco1)C(=O)Nc1ccc(C#N)cc1`, for which the solubility (kinetic) is greater than 42.5 µg/mL.
For the compound `O=C(CSc1cccc[n+]1[O-])c1ccc(Cl)cc1`, the kinetic solubility was found to be 39.9 µg/mL (≈ 143 µM).
Take `CN1CCN(c2ccc([N+](=O)[O-])c(Sc3ccccn3)c2)CC1`: the kinetic solubility is greater than 49.6 µg/mL.
Regarding `Fc1ccccc1-c1csc(-c2cccnc2)n1`, the kinetic solubility was 0.4 µg/mL (≈ 1.56 µM).
Turning to `COc1ccccc1NC(=O)Nc1sccc1-c1nc2ccccc2s1`, the kinetic solubility stood at 2.8 µg/mL (≈ 7.34 µM).
The figure for `CCc1c(C)nc(N2CCN(c3cccc(OC)c3)CC2)[nH]c1=O` is 15.8 µg/mL (≈ 48.1 µM).
`CC(NC(=O)Cc1ccsc1)c1ccc(Cl)cc1Cl` (stereo not drawn) showed a kinetic solubility of 3.8 µg/mL (≈ 12.1 µM).
In turn, `COc1ccccc1N1CN(Cc2ccccc2)CNC1=S` returned a kinetic solubility greater than 47 µg/mL.
With `CC(C)(C)c1ccc(C(CC(=O)O)NC(=O)CSc2ccccc2)cc1` (stereo not drawn), the kinetic solubility is greater than 55.7 µg/mL.
On to `O=C(Cc1ccc(F)cc1)N1CCN=C1SCc1cccc([N+](=O)[O-])c1`, for which the solubility (kinetic) is 9.4 µg/mL (≈ 25.2 µM).
As for `C=CCNC(=S)N1CCC(C(=O)c2ccc(Cl)cc2)CC1`, the solubility (kinetic) worked out at 43.5 µg/mL (≈ 135 µM). This solubility kinetic is about 4.6-fold higher than that of the compound before.
`CC1Cc2ccccc2N1S(=O)(=O)c1cccc(C(=O)OCC(=O)N2CCOCC2)c1` (stereo not drawn) had a solubility (kinetic) greater than 66.7 µg/mL.
The compound `Cc1ccc(C(=O)C2=C(O)C(=O)N(Cc3ccco3)C2c2cccc(Cl)c2)o1` (stereo not drawn) registered a kinetic solubility greater than 59.7 µg/mL.
Compound `Cc1cc(C(=O)O)ccc1-n1c(C)cc(/C=C2\SC(=O)NC2=O)c1C` yielded a kinetic solubility greater than 53.5 µg/mL.
The compound `CC12CS(=O)(=O)CC1SC(=S)N2Cc1ccccc1` (stereo not drawn) registered a solubility (kinetic) of 44.2 µg/mL (≈ 141 µM).
`CN(C(=O)/C=C/c1ccco1)c1ccccc1C(=O)O`: the solubility (kinetic) was greater than 40.7 µg/mL.
For the compound `CC(C)S(=O)(=O)c1cnc(N2CCOCC2)nc1N`, the solubility (kinetic) was greater than 43 µg/mL.
Take `O=C(NCc1cccs1)C1CC(=O)N(c2ccc(Cl)cc2)C1` (stereo not drawn): the solubility (kinetic) was found to be 11.9 µg/mL (≈ 35.5 µM).
As for `CC1CCCCN1C(=O)COC(=O)/C=C/c1ccc2ccccc2n1` (stereo not drawn), the figure is 25.1 µg/mL (≈ 74.2 µM); as for `C=CCSc1nc(C)c(CCCC)c(=O)[nH]1`, greater than 35.8 µg/mL; as for `Cc1ccccc1OC(=O)c1cccnc1`, 28.4 µg/mL (≈ 133 µM).
Take `N#Cc1ccccc1S(=O)(=O)N1CCN(C(=O)C2CCCCC2)CC1`: the kinetic solubility is greater than 54.2 µg/mL.
As for `Cc1cc(C)c(NC(=O)CC(=O)c2ccccc2)c(Cl)c1`, the figure is 3.5 µg/mL (≈ 11.6 µM); as for `CC(C)(C)Nc1nc(Cl)nc(Nc2ccccc2)n1`, 2.9 µg/mL (≈ 10.4 µM).
`Nc1nc(SCC(=O)N2CCOCC2)[nH]c(=O)c1-c1ccccc1`: the kinetic solubility is greater than 52 µg/mL.
Turning to `O=C(COC(=O)/C=C/c1cccc(Cl)c1)NCc1cccs1`, the solubility (kinetic) is 6.1 µg/mL (≈ 18.2 µM).
For `N#CCC(=O)Nc1ccc(C(=O)OCC(=O)N2CCN(C(=O)c3ccco3)CC2)cc1`, the solubility (kinetic) was greater than 63.7 µg/mL.
As for `O=C(CCc1ccccc1F)N1CCN(c2ccccc2)CC1`, the figure is 41.6 µg/mL (≈ 133 µM); as for `CCOc1ccc(NC(=S)NCc2ccc3c(c2)OCO3)cc1`, 17.1 µg/mL (≈ 51.8 µM); as for `CCOC(=O)N1CCN(C(=O)c2cc3ccc(OC)cc3[nH]2)CC1`, 19.5 µg/mL (≈ 58.8 µM).
The compound `CCC(=NCc1cc(OC)cc(OC)c1)c1c(O)[nH]c(=O)[nH]c1=O` displayed a solubility (kinetic) of 12.5 µg/mL (≈ 37.5 µM).
The figure for `COc1ccc(OC)c(NC(=S)N2CCN(C(=O)C3CCCO3)CC2)c1` (stereo not drawn) is greater than 56.9 µg/mL; for `CN(C)c1ccc(SC#N)cc1` it is 4.2 µg/mL (≈ 23.6 µM).
Regarding `Clc1ccc(SCCCN2CCCCC2)cc1.O=C(O)C(=O)O`, the kinetic solubility is greater than 54 µg/mL.
In turn, `O=C(Nc1cccc(S(=O)(=O)Nc2ccccc2F)c1)c1ccco1` displayed a solubility (kinetic) of 11.1 µg/mL (≈ 30.8 µM).
Compound `Cc1ccc(NC(=O)CCSc2nnc(C)o2)cc1` gave a kinetic solubility greater than 41.6 µg/mL.
In the case of `O=C(OCC(=O)N1CCN(C(=O)c2ccco2)CC1)c1c(Cl)cccc1Cl`, the solubility (kinetic) is greater than 61.7 µg/mL.
The figure for `Cc1cc(C(=O)OCC(=O)NC2CCC(C)CC2)c(C)o1` (stereo not drawn) is 11.6 µg/mL (≈ 39.5 µM).
Regarding `CSCCC1NC(=O)N(CC(=O)Nc2cccc(S(=O)(=O)N3CCCCCC3)c2)C1=O` (stereo not drawn), the solubility (kinetic) was determined as 52.3 µg/mL (≈ 112 µM).
`COCc1cc(=O)[nH]c(SC)n1`: the solubility (kinetic) is greater than 27.9 µg/mL.
For the compound `Cc1cccc(NS(=O)(=O)c2cccc([N+](=O)[O-])c2)n1`, the solubility (kinetic) was greater than 44 µg/mL.
The figure for `Cl.OC(CN1CCOCC1)Cn1c2c(c3ccccc31)CCCC2` (stereo not drawn) is 51.3 µg/mL; for `Cc1ccc2c(c1)C1(OCCCO1)C(=O)N2` it is greater than 32.9 µg/mL.
Compound `Cc1nc(-c2ccc(S(=O)(=O)N3CCOCC3)cc2)cs1` registered a solubility (kinetic) of 20.7 µg/mL (≈ 63.8 µM).
`O=C(C1CCN(S(=O)(=O)c2c(Cl)cccc2Cl)CC1)N1CCCC1`: the kinetic solubility is greater than 58.7 µg/mL.
`Cc1ccccc1SCC(=O)NCC(c1ccc(F)cc1)N1CCOCC1` (stereo not drawn) had a kinetic solubility greater than 58.3 µg/mL.
In turn, `CN1CCC(CNC(=O)Nc2ccccc2)(c2ccccc2)CC1` came in with a kinetic solubility greater than 48.5 µg/mL.
For `Cc1nn(-c2cccc(C(=O)O)c2)c(C)c1[N+](=O)[O-]`, the kinetic solubility was greater than 39.2 µg/mL.
`CCOc1ccc(N2C(=O)CC(=O)NC2=O)cc1` showed a kinetic solubility greater than 37.2 µg/mL.
The compound `CCc1nc(SCC(=O)OC)c2c3c(sc2n1)COC(C)(C)C3` had a kinetic solubility of 7.4 µg/mL (≈ 21 µM).
In the case of `COc1ccccc1CCC(=O)OCC(=O)Nc1ccc2[nH]c(=O)[nH]c2c1`, the solubility (kinetic) came to 30.5 µg/mL (≈ 82.6 µM).
The figure for `CCOC(=O)C1=C(Nc2ccc(Cl)cc2)OCC1=O` is greater than 42.3 µg/mL.
With `Cc1ccc(C(=O)NCCc2ccccc2)cc1`, the kinetic solubility was determined as 27.4 µg/mL (≈ 114 µM).
As for `O=C(O)C(Cc1c[nH]c2ccccc12)N1C(=O)C2C3c4ccccc4C(c4ccccc43)[C@@H]2C1=O` (stereo partly drawn), the kinetic solubility was 37.1 µg/mL (≈ 80.2 µM).
As to `Cc1c(C(=O)N2CCCC2)oc2ccc(Br)cc12`, the kinetic solubility is 25.1 µg/mL (≈ 81.4 µM).
As for `NC(=S)Nc1cccc(F)c1`, the kinetic solubility is greater than 25.5 µg/mL.
The compound `Cc1ccc(CCSc2ccc(F)cc2)cn1.O=C(O)C(=O)O` showed a kinetic solubility of 25.2 µg/mL.
The compound `Cc1c([N+](=O)[O-])c(C(=O)NC2CCCC2)nn1C` yielded a solubility (kinetic) greater than 37.8 µg/mL.
Consider `Cc1ccccc1N1CC(C(=O)N2CC(C)OC(C)C2)CC1=O` (stereo not drawn), for which the kinetic solubility is 47.1 µg/mL (≈ 149 µM).
`O=C(NC1CCCCC1)C1CC(=O)N(c2ccccc2)C1` (stereo not drawn) had a solubility (kinetic) of 38.5 µg/mL (≈ 134 µM). This solubility kinetic and that of the compound before are within 1.5-fold of each other.
In turn, `CCCc1cc(NCCCO)n2c(nc3ccccc32)c1C#N` yielded a solubility (kinetic) of 3.3 µg/mL (≈ 10.7 µM).
With `CC1CCN(C(=O)c2ccc3c(c2)NC(=O)CN3)CC1`, the kinetic solubility was greater than 41 µg/mL.
`CC(C)(C)N(Cc1cc2ccccc2[nH]c1=O)C(=O)c1ccco1` came in with a kinetic solubility of 2.9 µg/mL (≈ 8.94 µM).
On to `CC1CCCCC1NC(=O)COc1ncnc2sccc12` (stereo not drawn), for which the solubility (kinetic) was greater than 45.8 µg/mL.
`CCOc1ccc(Nc2nc(-c3cccnc3)cs2)cc1` showed a solubility (kinetic) of less than 0.2 µg/mL.
In the case of `O=C(Nc1ccc(F)c(Cl)c1)C1CCCC1`, the solubility (kinetic) was 13.5 µg/mL (≈ 55.9 µM).
As for `CN(C(=O)c1ccccc1OCc1ccc(Cl)cc1)c1ccccc1`, the figure is 10.7 µg/mL (≈ 30.4 µM); as for `CCN(c1ccccc1)S(=O)(=O)c1ccc2c(c1)OCCO2`, 26.3 µg/mL (≈ 82.3 µM); as for `Cc1ccccc1Nc1ncc(C#N)c(N)n1`, 31.6 µg/mL (≈ 140 µM).
As for `Cc1nc([N+](=O)[O-])cn1CC(=O)c1ccc(F)cc1`, the figure is greater than 39.5 µg/mL; as for `CCOc1ccc(C(=O)N2CCc3ccccc32)cc1OCC`, 40.5 µg/mL (≈ 130 µM).
As for `CC(OC(=O)[C@@H](NC(=O)c1ccco1)C(C)C)C(=O)Nc1ncc(Cl)cc1Cl` (stereo partly drawn), the figure is greater than 64.2 µg/mL; as for `COc1ccccc1NC(=O)c1cc(=O)[nH]c2ccccc12`, 29.7 µg/mL (≈ 101 µM).
On to `CCOc1ccc(-c2ncncc2-c2ccccc2OC)c(O)c1`, for which the solubility (kinetic) came to 34 µg/mL (≈ 105 µM).
Compound `Cn1c(=O)c2c(=O)cc(N)[nH]c2n(C)c1=O` displayed a solubility (kinetic) of 12.1 µg/mL (≈ 54.5 µM).
As for `COc1ccc(CCNC(=S)N(C)C)cc1OC`, the figure is greater than 40.3 µg/mL.
In turn, `COc1ccc(S(=O)(=O)NCc2c(-c3ccccc3)noc2C)c(OC)c1` gave a kinetic solubility of 4.4 µg/mL (≈ 11.3 µM).
As to `Cn1cnc([N+](=O)[O-])c1Sc1ccc(C(C)(C)C)cc1`, the solubility (kinetic) was 6.1 µg/mL (≈ 20.9 µM).
Consider `CCOC(=O)N1CCN(CC(O)c2c[nH]c3ccccc23)CC1` (stereo not drawn), for which the solubility (kinetic) is greater than 47.6 µg/mL.
The compound `O=C(NCCc1ccccc1)Oc1ccc(Cl)cc1` displayed a kinetic solubility of 2.3 µg/mL (≈ 8.34 µM).
The compound `CCOc1ccc(NC(=O)C2C(c3ccccc3)C2(Cl)Cl)cc1` (stereo not drawn) registered a kinetic solubility of less than 0.8 µg/mL.
The figure for `Cc1ccc(OCC(O)Cn2nc(C)cc2C)cc1` (stereo not drawn) is greater than 39.1 µg/mL; for `COc1ccc(C(=O)CSc2ncnc3nc[nH]c23)cc1` it is 8 µg/mL (≈ 26.6 µM); for `O=c1[nH]cnc2onc(-c3ccc(F)cc3)c12` it is greater than 34.7 µg/mL.
In turn, `CCn1c(=O)c(C(=O)CC#N)c(N)n(Cc2ccccc2)c1=O` came in with a kinetic solubility of 4.1 µg/mL (≈ 13.1 µM).
On to `COc1ccc(S(=O)(=O)NC2CC3CCC2C3)cc1` (stereo not drawn), for which the solubility (kinetic) worked out at 36.5 µg/mL (≈ 130 µM).
In the case of `CCOC(=O)/C=c1\s/c(=C(\C#N)C(N)=O)n(-c2ccccc2)c1=O`, the solubility (kinetic) worked out at 8.4 µg/mL (≈ 24.5 µM). This solubility kinetic is about 4.3-fold lower than that of the compound before.
On to `COc1ccc(C2NC(=S)NC3=C2N2CCC3CC2)cc1` (stereo not drawn), for which the solubility (kinetic) is greater than 45.2 µg/mL.
Compound `CCOc1cc(/C=C2/C(=O)ON=C2C)ccc1O` yielded a kinetic solubility of 27.2 µg/mL (≈ 110 µM).
`O=C(NCc1ccc(F)cc1)c1cnc(Cl)c(Cl)c1` displayed a solubility (kinetic) of 6.9 µg/mL (≈ 23.1 µM).
The figure for `O=C1N[C@@H](Cc2ccccc2)C(=O)N2CCC[C@@H]12` is greater than 36.6 µg/mL; for `CN(C)/C=C1\C(=O)N(c2ccc(F)cc2F)C(c2cccnc2)S1(=O)=O` (stereo not drawn) it is greater than 56.9 µg/mL.
For `CC(C)[C@H](NC(N)=O)C(=O)NCCc1ccc(Cl)cc1`, the solubility (kinetic) was greater than 44.7 µg/mL.
In the case of `O=C(COC(=O)Cc1ccc(Cl)cc1)NCc1ccco1`, the kinetic solubility is greater than 46.2 µg/mL.
As for `Cc1ccc(C(=O)Nc2ccc(C(=O)NCC3CCCO3)cc2)cc1` (stereo not drawn), the figure is 3.5 µg/mL (≈ 10.3 µM); as for `COc1ccc(Nc2nc(N)nc(CN3CCC(C)CC3)n2)cc1`, greater than 49.3 µg/mL; as for `COc1ccc(NC(=O)N2CCCc3ccccc32)c(OC)c1`, 45.3 µg/mL (≈ 145 µM).
